Measured values from ChEMBL document CHEMBL5649167, “The SUV4-20 inhibitor A-196 verifies a role for epigenetics in genomic integrity” (Nat Chem Biol, 2017).
Blank lines part the entries; values can stand above or below the compound they belong to. Calls of active or inactive are those of the source. No cut-off for these calls is given here.

Legend:
LNCaP = experiment: Cytotoxicity against human LNCaP cells assessed as cell viability at 1.5 to 100 uM incubated after 72 hrs; format: functional, cell-based; conditions: dose 1.5-100 µM
PC-3 = experiment: Antiproliferative activity against human PC-3 cells assessed as cell population doubling at 1 uM incubated for 80 days; format: functional, cell-based; conditions: time 80.0 day
[1] = biological target: Sodium-dependent dopamine transporter (Homo sapiens) (UniProt Q01959); experiment: Inhibition of human DAT in stable HEK cells at 10 uM relative to control; format: cell-based
U2OS [2] = experiment: Induction of cell cycle arrest in human U2OS cells assessed as decrease in H4K20me3 in S phase at 0.6 to 6 uM by plot analysis; format: functional, cell-based; conditions: dose 0.6-6 µM
U2OS [3] = experiment: Antiproliferative activity against human U2OS cells assessed as inhibition in H4K20me3 expression level 21 doublings by Western blot analysis; format: functional, cell-based
[4] = biological target: Histone-lysine N-methyltransferase EHMT2 (Homo sapiens) (UniProt Q96KQ7); experiment: Inhibition of G9a (unknown origin) using Biotin-tagged H4K20me1 and [3H-SAM] as substrate at 1 to 10 uM incubated for 2 hrs by scintillation proximity assay; conditions: dose 1-10 µM
Chain of Histone-lysine N-methyltransferase EHMT2 (Homo sapiens) (Q96KQ7 whole entry): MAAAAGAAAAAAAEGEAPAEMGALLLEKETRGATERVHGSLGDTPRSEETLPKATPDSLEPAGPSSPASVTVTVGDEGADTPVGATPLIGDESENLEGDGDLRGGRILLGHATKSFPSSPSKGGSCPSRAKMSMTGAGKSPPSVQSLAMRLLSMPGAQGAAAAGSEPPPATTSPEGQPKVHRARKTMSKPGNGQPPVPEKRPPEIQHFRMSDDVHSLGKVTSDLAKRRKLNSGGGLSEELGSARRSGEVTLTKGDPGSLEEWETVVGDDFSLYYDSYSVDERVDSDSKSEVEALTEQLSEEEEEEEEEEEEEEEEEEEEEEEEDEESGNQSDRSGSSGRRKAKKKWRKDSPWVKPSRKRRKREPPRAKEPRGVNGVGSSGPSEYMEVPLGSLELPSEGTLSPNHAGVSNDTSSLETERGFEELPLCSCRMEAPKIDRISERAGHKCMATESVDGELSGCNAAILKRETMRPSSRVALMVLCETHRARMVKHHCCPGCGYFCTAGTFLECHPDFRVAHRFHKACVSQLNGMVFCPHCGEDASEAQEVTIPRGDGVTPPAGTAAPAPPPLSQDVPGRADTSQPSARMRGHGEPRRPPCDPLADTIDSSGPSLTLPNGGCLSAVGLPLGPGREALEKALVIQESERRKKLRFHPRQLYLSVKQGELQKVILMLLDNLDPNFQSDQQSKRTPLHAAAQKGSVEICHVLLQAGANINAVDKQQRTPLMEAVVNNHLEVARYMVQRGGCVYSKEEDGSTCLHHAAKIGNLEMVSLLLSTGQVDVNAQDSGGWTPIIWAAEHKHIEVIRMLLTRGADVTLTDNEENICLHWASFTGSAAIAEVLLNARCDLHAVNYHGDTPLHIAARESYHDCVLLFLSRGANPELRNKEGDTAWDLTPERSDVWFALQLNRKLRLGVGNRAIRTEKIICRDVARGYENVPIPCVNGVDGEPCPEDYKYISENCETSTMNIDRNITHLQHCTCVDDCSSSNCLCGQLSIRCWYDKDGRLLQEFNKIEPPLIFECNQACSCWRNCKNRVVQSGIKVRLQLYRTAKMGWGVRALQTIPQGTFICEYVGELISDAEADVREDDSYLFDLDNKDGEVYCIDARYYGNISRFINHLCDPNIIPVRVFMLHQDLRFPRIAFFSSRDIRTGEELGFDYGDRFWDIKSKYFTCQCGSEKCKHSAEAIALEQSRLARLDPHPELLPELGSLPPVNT

U2OS [5] = experiment: Induction of DNA repair in human U2OS cells expressing I-SceI reporter assessed as decrease in H4K20me2 level by Western blot analysis; format: functional, cell-based
[6] = biological target: Mitogen-activated protein kinase 8 (Homo sapiens) (UniProt P45983); experiment: Inhibition of human JNK1 at 10 uM relative to control
[7] = biological target: Histone-lysine N-methyltransferase 2C (Homo sapiens) (UniProt Q8NEZ4); experiment: Inhibition of MLL3 (unknown origin) using Biotin-tagged H4K20me1 and [3H-SAM] as substrate at 1 to 10 uM incubated for 2 hrs by scintillation proximity assay; conditions: dose 1-10 µM
[8] = biological target: Serine/threonine-protein kinase Chk1 (Homo sapiens) (UniProt O14757); experiment: Inhibition of human CHK1 at 10 uM relative to control
U2OS [9] = experiment: Induction of DNA repair in human U2OS cells expressing I-SceI reporter assessed as increase in H4K20me1 level by Western blot analysis; format: functional, cell-based
[10] = biological target: Histone-lysine N-methyltransferase SUV39H2 (Homo sapiens) (UniProt Q9H5I1); experiment: Inhibition of SUV39H2 (unknown origin) using Biotin-tagged H4K20me1 and [3H-SAM] as substrate at 1 to 10 uM incubated for 2 hrs by scintillation proximity assay; conditions: dose 1-10 µM
[11] = biological target: Histone-lysine N-methyltransferase SUV39H1 (Homo sapiens) (UniProt O43463); experiment: Inhibition of SUV39H1 (unknown origin) using Biotin-tagged H4K20me1 and [3H-SAM] as substrate at 1 to 10 uM incubated for 2 hrs by scintillation proximity assay; conditions: dose 1-10 µM
HeLa = experiment: Antiproliferative activity against human HeLa cells assessed as cell population doubling at 1 uM incubated for 80 days; format: functional, cell-based; conditions: time 80.0 day
[12] = biological target: N-lysine methyltransferase SMYD2 (Homo sapiens) (UniProt Q9NRG4); experiment: Inhibition of SMYD2 (unknown origin) using Biotin-tagged H4K20me1 and [3H-SAM] as substrate at 1 to 10 uM incubated for 2 hrs by scintillation proximity assay; conditions: dose 1-10 µM
[13] = biological target: Hepatocyte growth factor receptor (Homo sapiens) (UniProt P08581); experiment: Inhibition of human c-Met at 10 uM relative to control
[14] = biological target: DNA (cytosine-5)-methyltransferase 1 (Homo sapiens) (UniProt P26358); experiment: Inhibition of DNMT1 (unknown origin) using dsDNA as substrate at 1 to 10 uM incubated for 1 hrs in the presence of [3H-SAM] by scintillation proximity assay; conditions: dose 1-10 µM
Chain of DNA (cytosine-5)-methyltransferase 1 (Homo sapiens) (P26358 whole entry): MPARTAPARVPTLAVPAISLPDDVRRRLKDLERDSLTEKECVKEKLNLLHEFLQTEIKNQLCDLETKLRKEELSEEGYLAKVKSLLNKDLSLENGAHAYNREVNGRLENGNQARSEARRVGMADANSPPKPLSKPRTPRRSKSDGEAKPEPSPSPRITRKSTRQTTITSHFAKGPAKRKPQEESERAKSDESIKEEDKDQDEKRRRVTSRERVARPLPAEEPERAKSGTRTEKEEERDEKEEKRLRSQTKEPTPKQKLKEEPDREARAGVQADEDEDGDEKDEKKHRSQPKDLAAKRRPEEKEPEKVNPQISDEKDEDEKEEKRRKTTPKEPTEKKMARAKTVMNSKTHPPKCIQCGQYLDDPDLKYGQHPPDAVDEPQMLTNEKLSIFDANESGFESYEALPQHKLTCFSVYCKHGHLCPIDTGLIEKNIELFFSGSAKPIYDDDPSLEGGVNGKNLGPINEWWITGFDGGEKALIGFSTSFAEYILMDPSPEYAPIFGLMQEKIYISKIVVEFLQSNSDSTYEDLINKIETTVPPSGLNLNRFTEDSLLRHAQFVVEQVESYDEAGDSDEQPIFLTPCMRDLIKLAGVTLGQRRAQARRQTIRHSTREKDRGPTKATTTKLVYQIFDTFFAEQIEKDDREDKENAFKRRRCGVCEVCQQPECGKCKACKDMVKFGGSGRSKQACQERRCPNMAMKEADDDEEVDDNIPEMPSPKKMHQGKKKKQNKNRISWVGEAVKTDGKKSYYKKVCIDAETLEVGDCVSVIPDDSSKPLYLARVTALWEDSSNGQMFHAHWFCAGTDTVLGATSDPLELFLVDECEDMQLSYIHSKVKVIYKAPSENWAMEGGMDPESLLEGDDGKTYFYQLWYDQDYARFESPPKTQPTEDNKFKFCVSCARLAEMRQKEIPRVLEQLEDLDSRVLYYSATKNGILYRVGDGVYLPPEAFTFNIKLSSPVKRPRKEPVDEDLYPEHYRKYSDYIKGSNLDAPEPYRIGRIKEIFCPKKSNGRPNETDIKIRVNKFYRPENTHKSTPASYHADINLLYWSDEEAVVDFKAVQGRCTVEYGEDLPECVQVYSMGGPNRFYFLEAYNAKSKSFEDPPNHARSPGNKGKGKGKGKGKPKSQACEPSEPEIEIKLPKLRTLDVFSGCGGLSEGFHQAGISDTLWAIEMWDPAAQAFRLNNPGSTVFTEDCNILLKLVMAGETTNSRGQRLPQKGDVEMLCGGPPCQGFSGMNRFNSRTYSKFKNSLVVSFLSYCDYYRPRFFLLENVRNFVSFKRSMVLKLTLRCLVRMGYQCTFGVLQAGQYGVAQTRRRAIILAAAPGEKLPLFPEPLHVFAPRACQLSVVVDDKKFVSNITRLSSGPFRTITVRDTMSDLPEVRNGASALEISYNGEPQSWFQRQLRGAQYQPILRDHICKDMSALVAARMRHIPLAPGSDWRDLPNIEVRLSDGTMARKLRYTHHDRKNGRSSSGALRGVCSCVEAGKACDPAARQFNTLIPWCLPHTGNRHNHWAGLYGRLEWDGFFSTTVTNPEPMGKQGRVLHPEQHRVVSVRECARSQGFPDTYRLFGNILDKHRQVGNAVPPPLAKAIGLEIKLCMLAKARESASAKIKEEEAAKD

[15] = biological target: Histone-lysine N-methyltransferase NSD3 (Homo sapiens) (UniProt Q9BZ95); experiment: Inhibition of NSD3 (unknown origin) at 1 to 10 uM incubated for 1 hrs by scintillation proximity assay; conditions: dose 1-10 µM
[16] = biological target: Histone-lysine N-methyltransferase KMT5B (Homo sapiens) (UniProt Q4FZB7); experiment: Binding affinity to recombinant human 6His-(Tev)-G-SUV420H1 (69 to 335 residues) assessed as increase thermal stability by measuring change in melting temperature at 50 uM by thermal shift assay
Chain of Histone-lysine N-methyltransferase KMT5B (Homo sapiens) (Q4FZB7 whole entry, looked up, the tested form may be a part): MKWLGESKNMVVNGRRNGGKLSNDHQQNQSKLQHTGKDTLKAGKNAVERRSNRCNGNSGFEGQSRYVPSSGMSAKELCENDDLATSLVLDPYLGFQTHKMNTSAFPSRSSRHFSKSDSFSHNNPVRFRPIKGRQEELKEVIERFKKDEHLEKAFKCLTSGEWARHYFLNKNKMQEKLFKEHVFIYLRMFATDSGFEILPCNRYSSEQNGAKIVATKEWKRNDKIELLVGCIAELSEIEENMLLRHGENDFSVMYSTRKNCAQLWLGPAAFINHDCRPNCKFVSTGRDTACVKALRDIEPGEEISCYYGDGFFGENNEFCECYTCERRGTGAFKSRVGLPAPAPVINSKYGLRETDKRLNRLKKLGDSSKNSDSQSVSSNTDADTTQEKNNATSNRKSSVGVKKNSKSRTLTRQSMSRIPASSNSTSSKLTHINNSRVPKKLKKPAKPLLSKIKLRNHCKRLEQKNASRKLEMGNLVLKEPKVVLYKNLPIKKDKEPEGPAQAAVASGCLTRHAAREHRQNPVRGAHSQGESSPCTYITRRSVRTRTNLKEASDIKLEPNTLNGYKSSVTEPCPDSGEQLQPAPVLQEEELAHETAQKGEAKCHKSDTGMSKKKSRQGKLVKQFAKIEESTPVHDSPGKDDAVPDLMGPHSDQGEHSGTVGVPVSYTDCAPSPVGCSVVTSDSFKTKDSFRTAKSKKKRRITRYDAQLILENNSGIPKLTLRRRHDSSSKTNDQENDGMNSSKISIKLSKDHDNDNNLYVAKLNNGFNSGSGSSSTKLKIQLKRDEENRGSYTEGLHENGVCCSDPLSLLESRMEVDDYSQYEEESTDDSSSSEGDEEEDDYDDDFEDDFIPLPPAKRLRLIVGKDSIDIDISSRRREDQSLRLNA

[17] = biological target: Histone-lysine N-methyltransferase SETD2 (Homo sapiens) (UniProt Q9BYW2); experiment: Inhibition of SETD2 (unknown origin) using Biotin-tagged H4K20me1 and [3H-SAM] as substrate at 1 to 10 uM incubated for 2 hrs by scintillation proximity assay; conditions: dose 1-10 µM
[18] = biological target: Serine/threonine-protein kinase TAO2 (Homo sapiens) (UniProt Q9UL54); experiment: Inhibition of human TAOK2 at 10 uM relative to control
[19] = biological target: Histone-lysine N-methyltransferase EHMT1 (Homo sapiens) (UniProt Q9H9B1); experiment: Inhibition of EHMT1 (unknown origin) using Biotin-tagged H4K20me1 and [3H-SAM] as substrate at 1 to 10 uM incubated for 2 hrs by scintillation proximity assay; conditions: dose 1-10 µM
U2OS [20] = experiment: Cytotoxicity against human U2OS cells assessed as cell viability at 1.5 to 100 uM incubated after 72 hrs; format: functional, cell-based; conditions: dose 1.5-100 µM
[21] = biological target: RAF proto-oncogene serine/threonine-protein kinase (Homo sapiens) (UniProt P04049); experiment: Inhibition of human RAF-1 at 10 uM relative to control
[22] = biological target: Protein arginine N-methyltransferase 7 (Homo sapiens) (UniProt Q9NVM4); experiment: Inhibition of PRMT7 (unknown origin) using Biotin-tagged H4K20me1 and [3H-SAM] as substrate at 1 to 10 uM incubated for 2 hrs by scintillation proximity assay; conditions: dose 1-10 µM
Chain of Protein arginine N-methyltransferase 7 (Homo sapiens) (Q9NVM4 whole entry): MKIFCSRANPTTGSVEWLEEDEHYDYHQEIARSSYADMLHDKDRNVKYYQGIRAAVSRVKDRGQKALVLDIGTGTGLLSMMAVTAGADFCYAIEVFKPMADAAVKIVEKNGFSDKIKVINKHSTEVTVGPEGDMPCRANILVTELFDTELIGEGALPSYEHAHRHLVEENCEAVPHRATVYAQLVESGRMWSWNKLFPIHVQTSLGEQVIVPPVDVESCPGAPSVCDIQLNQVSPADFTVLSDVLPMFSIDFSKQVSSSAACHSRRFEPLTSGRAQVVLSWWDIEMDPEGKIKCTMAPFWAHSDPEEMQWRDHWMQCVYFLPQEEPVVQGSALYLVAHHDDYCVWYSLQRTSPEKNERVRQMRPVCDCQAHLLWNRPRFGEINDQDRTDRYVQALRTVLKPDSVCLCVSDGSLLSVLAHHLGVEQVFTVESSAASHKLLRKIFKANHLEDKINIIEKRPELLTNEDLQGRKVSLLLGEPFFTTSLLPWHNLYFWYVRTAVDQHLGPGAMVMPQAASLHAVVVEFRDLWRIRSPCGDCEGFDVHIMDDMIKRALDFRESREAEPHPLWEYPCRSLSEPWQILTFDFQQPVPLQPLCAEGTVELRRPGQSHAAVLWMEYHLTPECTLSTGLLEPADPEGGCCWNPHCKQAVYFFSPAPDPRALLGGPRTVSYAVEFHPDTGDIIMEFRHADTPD

[23] = biological target: Sodium-dependent serotonin transporter (Homo sapiens) (UniProt P31645); experiment: Inhibition of human SERT expressed in stable HEK cells at 10 uM relative to control; format: cell-based
Chain of Sodium-dependent serotonin transporter (Homo sapiens) (P31645 whole entry, looked up): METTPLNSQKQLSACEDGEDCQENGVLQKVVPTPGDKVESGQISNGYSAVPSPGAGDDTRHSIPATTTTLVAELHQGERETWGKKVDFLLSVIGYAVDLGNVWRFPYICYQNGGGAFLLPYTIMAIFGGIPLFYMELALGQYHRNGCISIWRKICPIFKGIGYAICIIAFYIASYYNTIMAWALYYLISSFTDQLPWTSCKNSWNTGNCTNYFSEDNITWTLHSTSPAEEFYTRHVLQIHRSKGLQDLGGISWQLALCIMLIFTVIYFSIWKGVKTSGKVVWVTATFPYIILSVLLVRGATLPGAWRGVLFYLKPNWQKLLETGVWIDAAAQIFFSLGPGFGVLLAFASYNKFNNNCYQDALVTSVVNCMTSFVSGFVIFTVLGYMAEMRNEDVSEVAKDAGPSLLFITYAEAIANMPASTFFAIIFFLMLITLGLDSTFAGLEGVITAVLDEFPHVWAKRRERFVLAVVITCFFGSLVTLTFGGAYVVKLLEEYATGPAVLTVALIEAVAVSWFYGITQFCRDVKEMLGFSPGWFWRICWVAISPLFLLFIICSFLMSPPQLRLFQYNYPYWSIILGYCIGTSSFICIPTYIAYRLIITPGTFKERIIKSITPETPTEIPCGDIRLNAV

U2OS [24] = experiment: Induction of DNA repair in human U2OS cells expressing I-SceI reporter assessed as change in HDR-mediated repair at 1 uM by flow cytometry analysis; format: functional, cell-based
[25] = biological target: Histone-lysine N-methyltransferase ASH1L (Homo sapiens) (UniProt Q9NR48); experiment: Inhibition of ASH1L (unknown origin) at 1 to 10 uM incubated for 1 hrs by scintillation proximity assay; conditions: dose 1-10 µM
[26] = biological target: Proto-oncogene tyrosine-protein kinase Src (Homo sapiens) (UniProt P12931); experiment: Inhibition of human Src at 10 uM relative to control
[27] = biological target: Insulin receptor (Homo sapiens) (UniProt P06213); experiment: Inhibition of human IRK at 10 uM relative to control
HL-60 = experiment: Cytotoxicity against human HL-60 cells assessed as cell viability upto 12.5 uM incubated for 48 hrs; format: functional, cell-based
[28] = biological target: Histone-lysine N-methyltransferase KMT5B (Homo sapiens) (UniProt Q4FZB7); experiment: Inhibition of recombinant human 6His-(Tev)-G-SUV420H1 (69 to 335 residues) using Biotin-tagged H4K20me1 and [3H-SAM] as substrate incubated for 2 hrs by scintillation proximity assay
[29] = biological target: Histone-lysine N-methyltransferase KMT5C (Homo sapiens) (UniProt Q86Y97); experiment: Inhibition of human SUV420H2 using Biotin-tagged H4K20me1 and [3H-SAM] as substrate incubated for 2 hrs by scintillation proximity assay
MEF = experiment: Antiproliferative activity against mouse MEF cells assessed as change in H4K20me1 at 10 uM incubated for 3 days by immunofluorescence analysis; format: functional, cell-based; conditions: time 3.0 day

inhibition [1]: -4%
inhibition [4]: inactive
inhibition [6]: -8%
inhibition [7]: inactive
inhibition [8]: 3%
inhibition [10]: inactive
inhibition [11]: inactive
inhibition [12]: inactive
inhibition [13]: -4%
inhibition [14]: inactive
inhibition [15]: inactive
ΔTm [16]: 6.4 °C
inhibition [17]: inactive
inhibition [18]: 0%
inhibition [19]: inactive
inhibition [21]: 8%
inhibition [22]: inactive
inhibition [23]: -7%
inhibition [25]: inactive
inhibition [26]: -1%
inhibition [27]: 7%
Structure (SMILES): Clc1cc2c(NC3CCCC3)nnc(-c3ccncc3)c2cc1Cl
Activity (LNCaP): Active
Activity (PC-3): Active
Activity (U2OS [2]): Active
Activity (U2OS [3]): Active
Activity (U2OS [5]): Active
Activity (U2OS [9]): Active
Activity (HeLa): Active
Activity (U2OS [20]): Active
Activity (U2OS [24]): inactive
Activity (HL-60): Active

inhibition [28]: inactive
inhibition [29]: inactive
Structure (SMILES): O=C(c1nnc(NC2CCCC2)c2cc(Cl)c(Cl)cc12)N1CCC(O)CC1
Activity (MEF): inactive
